This is an account of results in patent US12234257B2, “Triterpene saponin derivative and use thereof” (KOREA INSTITUTE OF SCIENCE AND TECHNOLOGY, priority 2020, dated 2025).

Entries after “also recorded” stand apart in the source; their conditions may differ.

Data set [1] deals with SH-SY5Y cells. The experiment in a line: MTT assay to measure cell viability. Format: cell-based, human. Conditions: 24 hours. The protocol: Cell viability was detected using an MTT assay kit (Z-Cytox). Briefly, the SH-SY5Y cells were seeded on a 96-well plate at a density of 2×10^4 cells/well with 100 μL of a culture medium. After 24 hours, the SH-SY5Y cells were treated with AKNS-2 and/or MPP^+ having desired concentrations to identify cytotoxicity of AKNS-2 and MPP^+. After 24 hours, 10 μL of the MTT reagent was added to each well of the 96-well plate including the cells. Absorbance was measured at 450 nm using a microplate spectrophotometer (BioTek, Vt., USA). […] The next day, absorbance was measured at 1 hour after adding the MTT reagent thereto.
In general terms: Tetrazolium assays rely on reduction of a dye to a coloured formazan, in cell work by metabolically active cells.

Data set [2] deals with LC3, p62, TH and α-synuclein in SH-SY5Y cells. The experiment in a line: Western blot of LC3, p62, TH and α-synuclein in MPP^+-treated SH-SY5Y cells (in vitro PD model). Format: cell-based, human. The protocol: Human neuroblastoma (SH-SY5Y) cells were purchased from the American Type Culture Collection (Manassas, Va., USA) and cultured in DMEM supplemented with 10% heat-inactivated FBS and 1% penicillin/streptomycin. The SH-SY5Y cells were cultured at 37° C. in a humid atmosphere containing 5% CO2. […] The SH-SY5Y cells were transfected with AMPK siRNA and then administered with AKNS-2 at 36 hours after siRNA transfection. […] After 24 hours from treatment with the samples, the SH-SY5Y cells were recovered and used for subsequent analysis. At 24 hours after drug treatment, the culture medium was removed from the 6-well plate, and the cells were gently washed once with cold saline. Subsequently, 1 mL of cold saline was added to each well, and cells attached to the bottom were floated by rubbing the bottom with a 1 mL pipette. The suspension was collected in a 1.5 mL tube and centrifuged at 4° C. at 13000×g for 5 minutes. After removing a supernatant, 50 μL of a RIPA lysis buffer including a protease inhibitor cocktail (Roche, Mannheim, Germany) and purchased from Cell Signaling Technology (Danvers, Mass., USA) was added to the cell pellet. After shaking the mixture at 4° C. for 30 minutes, the obtained cells were centrifuged at 4° C. at 13000×g for 20 minutes. A supernatant was collected therefrom, and a concentration of proteins was measured using a standard curve constructed using BSA by the Bradford method. Then, the supernatant was diluted with a loading buffer and heated at 99° C. for 5 minutes. Resultant cells were used in a subsequent western blot analysis. Protein markers contained in lysates of the SH-SY5Y cells and brain tissue of the mice (SNpc and ST) were measured by western blot analysis. Briefly, after determining a concentration, a protein sample (20 μg) was separated by 8%, 10%, or 15% sodium dodecyl sulfate-polyacrylamide gel electrophoresis (SDS-PAGE). Then, proteins separated on the gel were transferred to a polyvinylidene fluoride (PVDF) membrane for 45 minutes using a Trans-Blot Turbo Transfer System (Bio-Rad, USA). […] The membrane was further incubated with monoclonal primary antibodies derived from rabbits (anti-GAPDH, anti-AMPK, anti-p-AMPK, anti-ULK, anti-p-ULK555, anti-Erk, anti-p-Erk, anti-mTOR, anti-p-mTOR, anti-LC3B, anti-TH, and anti-α-synuclein antibodies). The primary antibodies were diluted in a blocking buffer at a ratio of 1:1000 and incubated overnight at 4° C. On the second day, the membrane was washed with TBST three times (10 minutes each) and incubated at room temperature in a horseradish peroxidase-conjugated goat anti-rabbit IgG secondary antibody (diluted in a blocking buffer at a ratio of 1:2000). After incubating in the secondary antibody for 1 hour, the membrane was washed for 30 minutes. The protein blots on the membrane were developed using an ECL detection kit and visualized using an LAS-4000 mini system (Fujifilm, Japan). The intensity of the protein blots was quantified using Multi Gauge software (Fujifilm, Japan).

As to `C[C@@H]1O[C@@H](O[C@@H]2[C@@H](O)[C@H](O[C@@H]3[C@@H](O[C@@H]4OC[C@@H](O)[C@H](O)[C@H]4O)[C@@H](O)[C@H](O[C@H]4[C@H](OC(=O)[C@]56CCC(C)(C)C[C@H]5C5=CC[C@@H]7[C@@]8(C)C[C@H](O)[C@H](O[C@@H]9O[C@H](CO)[C@@H](O)[C@H](O[C@@H]%10OC[C@@H](O)[C@H](O)[C@H]%10O)[C@H]9O)[C@@](C)(CO)[C@@H]8CC[C@@]7(C)[C@]5(C)C[C@H]6O)OC[C@H](O)[C@@H]4O)O[C@H]3C)OC[C@H]2O)[C@H](O)[C@H](O)[C@H]1O` [Compound 1, 3-O-β-D-xylopyranosyl-(1→3)-β-D-glucopyranosylpolygalacic acid 28-O-α-L-rhamnopyranosyl-(1→3)-β-D-xylopyranosyl-(1→4)-[β-D-xylopyranosyl-(1→3)]-α-L-rhamnopyranosyl-(1→2)-α-L-arabinopyranosyl ester], the “cell viability damaged by MPP^+ (MTT)” value in data set [1] (AKNS-2 5 μM and 10 μM 1 hour before 2 mM MPP^+) is given as “significantly improved cell viability damaged by 2 mM MPP^+; also recorded: significantly enhanced cell viability that had decreased by MPP^+; also recorded: reversed the effects of MPP^+ on cell viability”. Further, the “cytotoxicity (cell viability, MTT)” value in data set [1] (AKNS-2 alone, up to 40 μM) is listed as “did not significantly affect cytotoxicity”. Moreover, the “expression of TH” value in data set [2] (AKNS-2 (5 μM and 10 μM) + 2 mM MPP^+ vs MPP^+ alone) is “the MPP^+-induced decrease in expression of TH was reversed; also recorded: the decreased expression of TH may be restored; also recorded: offset toxicity of MPP^+ and reversed the expression of TH”. Also, the “expression of α-synuclein” value in data set [2] (AKNS-2 + 2 mM MPP^+ vs MPP^+ alone) was “canceled out the effects of MPP^+ and inhibited the expression of α-synuclein; also recorded: the increased expression level of α-synuclein was decreased”.
